Assay results: patent US20240092739A1, “COMPOUNDS AND METHODS OF USE” (Ferro Therapeutics, Inc, priority 2020, published 2024)

Legend:
[1] = tested on: SJSA-1 (osteosarcoma) cells; experiment: Cell proliferation (Alamar Blue) assay, SJSA-1 cells; type: cell-based; conditions: Homo sapiens, 24 h compound treatment
Protocol: (§1) Cell viability assay was performed to assess the potency of the compounds in human cancer cell lines 786-0 (renal cell carcinoma) and SJSA-1 (osteosarcoma). Additional cell lines, such as pancreatic cancer cell lines (Panc 02.13, BxPC-3, Panc 12, Panc 02.03, Panc 6.03, PSN-1, HPAC, and Capan-1), prostate cancer cell lines (PC-3, DU145, […], NCI-H660, 1PH1 LNCaP, BM-1604, and MDA PCa 2b), etc., can be tested in a similar method.
(§2) Cells (SJSA-1, 786-0 and A431) were seeded (5000 cells/100 μL/well) in 96-well tissue culture plate and incubated at 37° C./500 CO2 for 16-24 hours. The cells were then treated with compounds (25 μL of 5×). The compound concentrations were 10-0.0005 μM prepared in 3-fold serial dilutions with final DMSO concentration of 1%. The plates were then incubated for 24 h at 37° C./[…] in a moist environment. Then Alamar Blue™ reagent (final concentration 1×-12.5 μL) was added to each well and incubated for 1.5 hours at 37° C./500 CO2. The plates were read on fluorescence reader at 540 nm excitation and 590 nm emission wavelengths. The IC50 values were subsequently determined using a sigmoidal dose-response curve (variable slope) in GraphPad Prism® 5 software. Tables A-3 and B-11 show cell proliferation data for exemplary compounds as described herein.

[2] = tested on: 786-O (renal cell carcinoma) cells; experiment: Cell proliferation (Alamar Blue) assay, 786-O cells; type: cell-based; conditions: Homo sapiens, 786-0; 786-O cells, 24 h compound treatment, Alamar Blue; read-out: IC50 (μM) 786-O
Protocol: as §1, §2

A431 cells = experiment: Cell proliferation (Alamar Blue) assay, A431 cells; type: cell-based; conditions: Homo sapiens, A-431; A431 cells, 24 h compound treatment, Alamar Blue; read-out: IC50 (μM) A431
Protocol: as §1, §2

[3] = tested on: 786-O cells + Ferrastatin-1; experiment: GPX4 inhibition assay: cell proliferation (Alamar Blue) in 786-O cells with ferrostatin rescue; type: cell-based, human; conditions: 786-O cells in presence of Ferrastatin-1 (rescue), read-out: IC50 (μM) 786-O + Ferrastatin-1
Protocol: as §2
Studies have shown that lipophilic antioxidants, such as ferrostatin, can rescue cells from GPX4 inhibition-induced ferroptosis. For instance, mesenchymal state GPX4-knockout cells can survive in the presence of ferrostatin, however, when the supply of ferrostatin is terminated, these cells undergo ferroptosis (see, e.g., Viswanathan et al., Nature 547:453-7, 2017). […] Accordingly, the ability of a molecule to induce ferroptotic cancer cell death, and that such ability is admonished by the addition of ferrostatin, is clear indication that the molecule is an GPX4 inhibitor. Cell proliferation data for exemplary compounds with and without ferrostatin can be seen in Table A-3.

SMILES | IC50 [1] | IC50 [2] | IC50 (A431 cells) | IC50 [3]
C#CC(=O)N1[C@@H](CCCC)Cc2cc(OC)ccc2[C@H]1c1ccc(NC(=O)C2CCC2)cc1 [Compound B-19, N-(4-((1R,3S)-3-butyl-6-methoxy-2-propioloyl-1,2,3,4-tetrahydroisoquinolin-1-yl)phenyl) cyclobutane carboxamide] | 0.52 µM | 0.569 µM | 6.3 µM | 
C#CC(=O)N1[C@@H](CCCC)Cc2cc(OC)ccc2[C@@H]1c1ccc(NC(=O)C2CCC2)cc1 [Compound B-20, N-{4-[(1S,3S)-3-butyl-6-methoxy-2-(prop-2-ynoyl)-1,2,3,4-tetrahydroisoquinolin-1-yl]phenyl}cyclobutanecarboxamide] | 0.021 µM | 0.02 µM | 6.14 µM | 
C#CC(=O)N1[C@@H](CCCC)Cc2cc(OC)ccc2[C@@H]1c1ccc(NC2CCC2)cc1 [Compound B-22, 1-((1S,3S)-3-butyl-1-(4-(cyclobutylamino)phenyl)-6-methoxy-3,4-dihydroisoquinolin-2(1H)-yl)prop-2-yn-1-one] | 0.05 µM | 0.041 µM | 9.96 µM | 
C#CC(=O)N1[C@@H](CCCC)Cc2cc(OC)ccc2[C@@H]1c1ccc(NC(=O)c2ccnc(C)c2)cc1 [Compound B-49, N-(4-((1S,3S)-3-butyl-6-methoxy-2-propioloyl-1,2,3,4-tetrahydroisoquinolin-1-yl)phenyl)-2-methylisonicotinamide] | 0.2 µM | 0.037 µM |  | 

Further lines, results first:

IC50 [1] | IC50 [2] | IC50 (A431 cells) | IC50 [3] | SMILES
 | 0.01 µM | 4.9 µM | ≥ 10 µM | C#CC(=O)N1[C@@H](CCCC)Cc2cc(OC)ccc2[C@H]1c1ccc(NC23CC4CC(CC(C4)C2)C3)c(C#N)c1 [Compound B-81]
 | 0.024 µM | 1.84 µM | 1.71 µM | C#CC(=O)N1[C@@H](CCCC)Cc2cc(OC)ccc2[C@@H]1c1cc(F)c(NC23CC4CC(CC(C4)C2)C3)c(F)c1 [Compound B-82]
 | 2.79 µM | 7.87 µM | 6.59 µM | C#CC(=O)N1[C@@H](CCCC)Cc2cc(OC)ccc2[C@@H]1c1ccc(NC23CC4CC(CC(C4)C2)C3)cc1F [Compound B-83]
 | 0.037 µM | 0.881 µM | 0.056 µM | C#CC(=O)N1[C@@H](CCCC)Cc2cc(OC)ccc2[C@@H]1c1ccc(NC23CC4CC(CC(C4)C2)C3)c(F)c1 [Compound B-84]
